Measurements as given in patent US6569638B1, “Method for screening compounds for the treatment of neoplasia” (Cell Pathways, Inc, priority 2000, dated 2003).

Key:
[1] = system: adenomatous polyposis coli polyps; assay: Clinical prevention trial of polyp formation in APC patients; format: in vivo, human
From the text: The first clinical trial involved patients with APC using exisulind. In that study, each patient had already had his/her colon removed, except for a small section of colon adjacent the rectum (where the small intestine was attached) to preserve rectal function. However, such a patient commonly forms polyps in the small remaining colonic section, which polyps require periodic removal (e.g., by electrocautery).
That trial where exisulind was selected was a prevention trial designed to evaluate the anti-neoplastic characteristics of the drug by comparing the cumulative number of new polyps formed over twelve months by the drug and placebo groups. Eligible patients were those who form between 9 and 44 polyps per year. Patients were fully ablated (had all polyps removed) at the start of the study, at the end of 6 months and at the end of 12 months. The study enrolled thirty-four eligible patients. […] Based on the median number of polyps produced in the first six months of the study, patients treated with exisulind developed approximately one-third the number of polyps as patients treated with placebo (median values 9 polyps/year and 26 polyps/year, respectively; p=0.013). […]

PKG in SW480 cells = assay: Western blot of PKG expression; format: cell-based, human; details: 48 hours
Experimental: SW480 cells treated with exisulind as described previously are harvested from the microfuge tubes by rinsing once with ice-cold PBS. The cells are lysed by modified RIPA buffer for 15 minutes with agitation. The cell lysate is spun down in a cold room. The supernatants are transferred to fresh microcentrifuge tubes immediately after spinning. BioRad DC Protein Assay (Temecula, Calif.) is performed to determine the protein concentrations in samples. The samples are normalized for protein concentration, as described above.
50 μg of each sample is loaded to 10% SDS gel. SDS-PAGE is performed, and the proteins then are transferred to a nitrocellulose membrane. The blotted nitrocellulose membrane are blocked in freshly prepared TBST containing 5% nonfat dry milk for one hour at room temperature with constant agitation.
A goat-anti-PKG primary antibody is diluted to the recommended concentration/dilution in fresh TBST/5% nonfat dry milk. The nitrocellulose membrane is placed in the primary antibody solution and incubated one hour at room temperature with agitation. The nitrocellulose membrane is washed three times for ten minutes each with TBST. The nitrocellulose membrane is incubated in a solution containing a secondary POD conjugated rabbit anti-goat antibody for 1 hour at room temperature with agitation. The nitrocellulose membrane is washed three times for ten minutes each time with TBST. […]

[2] = Safety evaluation in exisulind clinical trials; format: in vivo
Experimental: In these exisulind trials and several others involving the drug in other indications, safety was evaluated by monitoring adverse events (AEs), clinical laboratory tests (hematology, serum chemistry, and urinalysis), vital signs (blood pressure, pulse rate, respiratory rate, temperature, and weight), physical examination, and upper endoscopy.

CCRF-CEM = assay: Neutral red growth inhibition; format: cell-based, human; details: Leukemia, HCl salt
Experimental: Compound B's activity is not confined to activity against colon cancer cell lines or animal models of colon cancer. It has a broad range of anti-neoplastic effects in various neoplastic cell lines. Various types of human cancer cell lines were propagated under sterile conditions in RPMI 1640 medium with 10% fetal bovine serum, 2 mM L-glutamine and sodium bicarbonate. To determine growth inhibitory effects of Compound B, cells were seeded in 96-well plates at a density of 1000 cells per well. Twenty-four hours after plating, the cells were dosed with various concentrations of the free base of Compound B solubilized in DMSO (final concentration 0.1%). The effect of the drug on tumor cell growth was determined using the neutral red cytotoxicity assay following five days of continuous treatment. Neutral red is a dye that is selectively taken up by viable cells by an ATP-dependent transport mechanism.

[3] = Toxicity study in dogs (capsules); format: in vivo
From the text: Thus, on a single-dose basis, Compound B is not acutely toxic.

28-day study in rats = format: in vivo
[4] = system: SW-480 colon adenocarcinoma cells; assay: Apoptosis induction determined by morphology; format: cell-based, human
From the text: Apoptosis occurs naturally during normal tissue turnover and during embryonic development of organs and limbs. Apoptosis also is induced by cytotoxic T-lymphocytes and natural killer cells, by ionizing radiation and by certain chemotherapeutic drugs. Inappropriate regulation of apoptosis is thought to play an important role in many pathological conditions including cancer, AIDS, or Alzheimer's disease, etc. Compounds can be screened for induction of apoptosis using cultures of tumor cells maintained under conditions as described above. Treatment of cells with test compounds involves either pre- or post-confluent cultures and treatment for two to seven days at various concentrations. Apoptotic cells are measured in both the attached and “floating” compartments of the cultures. Both compartments are collected by removing the supernatant, trypsinizing the attached cells, and combining both preparations following a centrifugation wash step (10 minutes, 2000 rpm). The protocol for treating tumor cell cultures with sulindac and related compounds to obtain a significant amount of apoptosis has been described in the literature. (See, Piazza, G. A., et al., Cancer Research, 55:31 10-16, 1995, which is incorporated herein by reference). The novel features include collecting both floating and attached cells, identification of the optimal treatment times and dose range for observing apoptosis, and identification of optimal cell culture conditions.
Following treatment with a compound, cultures can be assayed for apoptosis and necrosis by florescent microscopy following labeling with acridine orange and ethidium bromide. The method for measuring apoptotic cell number has previously been described by Duke & Cohen, “Morphological And Biochemical Assays Of Apoptosis,” Current Protocols In Immunology, Coligan et al., eds., 3.17.1-3.17.16 (1992, which is incorporated herein by reference).
For example, floating and attached cells can be collected by trypsinization and washed three times in PBS. Aliquots of cells can be centrifuged. […]

[5] = system: SW-480 colon adenocarcinoma cells; assay: DNA fragmentation (Cell Death Detection ELISA); format: cell-based, human
Experimental: Samples are then analyzed.

| SMILES | median number of polyps ([1]; entire 12 months of the study) | median number of polyps ([1]; first six months of the study) | PKG level by Western blot (PKG in SW480 cells) | safety findings in clinical trials ([2]; human, in vivo) | maximum tolerated dose (MTD) ([2]; patients with intact colons) | maximum tolerated dose (MTD) ([2]; patients with subtotal colectomy) | maximum tolerated dose (MTD) ([2]; pediatric patients) | GI50 (CCRF-CEM) | oral LD50 [3] | signs of toxicity ([3]; capsules, single 1000 mg/kg) | signs of drug-related effects ([3]; single dose and seven consecutive doses of 1000 mg/kg/day) | liver weights (28-day study in rats; 28 days, 2000 mg/kg/day) | thyroid weights (28-day study in rats; 28 days, 2000 mg/kg/day) | clinical observations (28-day study in rats; 28 days, 50, 500 and 2000 mg/kg/day) | % Apoptosis ([4]; 0.35 μM) | % Apoptosis ([4]; 0.7 μM) | % Apoptosis ([4]; 1.5 μM) | EC50 [5] |
| --- | --- | --- | --- | --- | --- | --- | --- | --- | --- | --- | --- | --- | --- | --- | --- | --- | --- | --- |
| CC1=C(CC(=O)O)c2cc(F)ccc2/C1=C\c1ccc(S(C)(=O)=O)cc1 [exisulind, 5-fluoro-2-methyl-1-(p-methylsulfonylbenzylidene)-3-indenylacetic acid] | 18 polyps/year | 9 polyps/year | the increase of PKG | No outstanding safety issues have been demonstrated | 400 mg | 600 mg | 350 mg |  |  |  |  |  |  |  |  |  |  |  |
| CC1=C(CC(=O)NCc2ccccc2)c2cc(F)ccc2/C1=C\c1ccncc1.Cl [Compound B, (Z)-5-fluoro-2-methyl-(4-pyridylidene)-3-(N-benzyl)indenylacetamide hydrochloride] |  |  |  |  |  |  |  | 1.4 µM | greater than 1000 mg/kg | no signs of toxicity | At no time in either dosing phase were any obvious signs of drug-related effects observed | statistically significant increase in liver weights | statistically significant increases in thyroid weights | no abnormal clinical observations attributed to Compound B | 16% | 27% | 88% | 15 µM |
